Test results taken from US7816522B2, “Triazolone derivatives” (Eisai Co., Ltd., priority 2006, dated 2010).

target: T1, human clotting factor VIIa (Homo sapiens, UniProt P08709); assay: Inhibitory activity against clotting factor VIIa (chromogenic substrate Spectrozyme FVIIa, TF/Factor VIIa enzyme solution); type: biochemical; details: human Factor VIIa 5 nmol/L with human TF 10 nmol/L, room temperature 40 minutes, 405 nm
T1 construct: a human clotting factor VIIa (hereinafter, “Factor VIIa”) purified sample; purchased Enzyme Research Laboratories HFVIIa
T1 sequence (P08709 213-466 limits assumed): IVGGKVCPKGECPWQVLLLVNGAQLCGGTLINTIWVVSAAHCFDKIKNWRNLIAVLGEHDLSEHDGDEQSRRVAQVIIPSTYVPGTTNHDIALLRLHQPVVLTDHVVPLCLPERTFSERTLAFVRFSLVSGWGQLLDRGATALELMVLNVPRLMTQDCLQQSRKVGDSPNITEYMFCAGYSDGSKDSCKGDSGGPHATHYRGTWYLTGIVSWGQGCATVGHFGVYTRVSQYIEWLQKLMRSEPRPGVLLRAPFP
T1 sequence (P08709 61-212 limits assumed): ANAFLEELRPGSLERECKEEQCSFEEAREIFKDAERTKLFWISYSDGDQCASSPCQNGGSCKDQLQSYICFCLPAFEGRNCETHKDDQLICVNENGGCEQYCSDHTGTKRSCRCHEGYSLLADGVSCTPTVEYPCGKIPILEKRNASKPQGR
T1 sequence (P13726 33-295 partner): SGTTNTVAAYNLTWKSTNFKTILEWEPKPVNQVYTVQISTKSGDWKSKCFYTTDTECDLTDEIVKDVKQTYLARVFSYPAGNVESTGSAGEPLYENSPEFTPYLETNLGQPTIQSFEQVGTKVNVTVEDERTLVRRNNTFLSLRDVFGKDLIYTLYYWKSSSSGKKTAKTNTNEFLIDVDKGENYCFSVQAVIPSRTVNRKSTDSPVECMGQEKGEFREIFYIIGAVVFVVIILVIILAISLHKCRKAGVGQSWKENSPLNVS
In short: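 Human Factor VIIa (5 nmol/L) with human TF (10 nmol/L) in Tris-BSA buffer pH 7.4 containing 15 mmol/L CaCl2 and cephalin, with Spectrozyme FVIIa substrate. Reaction 40 min at room temperature; 4-nitroanilide read at 405 nm. IC50 by non-linear regression over 100 μmol/L–0.1 nmol/L.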

IC50 [nM] | Compound
25.8 | CCOc1cc(O)cc(C(Nc2ccc(C(=N)N)cc2)c2nn(-c3ncccn3)c(=O)[nH]2)c1 (racemic) [Example 221, 4-{[(3-Ethoxy-5-hydroxyphenyl)-(5-oxo-1-pyrimidin-2-yl-4,5-dihydro-1H-[1,2,4]triazol-3-yl)methyl]amino}benzamidine]
2.7 | COc1cc(C(Nc2ccc(C(=N)N)cc2)c2nn(-c3ccsc3C(=O)O)c(=O)[nH]2)c(F)c2c1OCCC2 (racemic) [Example 222, 3-{3-[(4-Carbamimidoylphenylamino)-(5-fluoro-8-methoxychroman-6-yl)methyl]-5-oxo-4,5-dihydro-[1,2,4]triazol-1-yl}thiophene-2-carboxylic acid]
13.4 | COc1cc(C(Nc2ccc(C(=N)N)cc2)c2nn(-c3ncccn3)c(=O)[nH]2)cc2c1OCC(=O)N2CCF (racemic) [Example 223, 4-{[[4-(2-Fluoroethyl)-8-methoxy-3-oxo-3,4-dihydro-2H-benzo[1,4]oxazin-6-yl]-(5-oxo-1-pyrimidin-2-yl-4,5-dihydro-1H-[1,2,4]triazol-3-yl)methyl]amino}benzamidine]
3.7 | COc1cc(OC)cc(C(Nc2ccc(C(=N)N)cc2)c2nn(-c3ncccc3C)c(=O)[nH]2)c1 (racemic) [Example 225, (R) and (S)-4-({(3,5-Dimethoxyphenyl)-[1-(3-methylpyridin-2-yl)-5-oxo-4,5-dihydro-1H-[1,2,4]triazol-3-yl]methyl}amino)benzamidine acetate]
3.2 | COc1cc(C(Nc2ccc(C(=N)N)cc2)c2nn(-c3ccsc3C(=O)O)c(=O)[nH]2)cc2c1OCOC2 (racemic) [Example 226, 3-{3-[(R) and (S)-(4-Carbamimidoylphenylamino)-(8-methoxy-4H-benzo[1,3]dioxin-6-yl)methyl]-5-oxo-4,5-dihydro-[1,2,4]triazol-1-yl}thiophene-2-carboxylic acid]
4.5 | COc1cc(C(Nc2ccc(C(=N)N)cc2)c2nn(-c3ccsc3C(=O)O)c(=O)[nH]2)cc(OC)c1OC (racemic) [Example 227, 3-{3-[(R) and (S)-(4-Carbamimidoylphenylamino)-(3,4,5-trimethoxyphenyl)methyl]-5-oxo-4,5-dihydro-[1,2,4]triazol-1-yl}thiophene-2-carboxylic acid]
2.6 | COc1cc(OCCO)c(F)c(C(Nc2ccc(C(=N)N)cc2)c2nn(-c3ccsc3C(=O)O)c(=O)[nH]2)c1 (racemic) [Example 228, (R) and (S)-3-(3-{(4-Carbamimidoylphenylamino)-[2-fluoro-3-(2-hydroxyethoxy)-5-methoxyphenyl]methyl}-5-oxo-4,5-dihydro[1,2,4]triazol-1-yl)thiophene-2-carboxylic acid]
5.1 | COc1cc(OCCCO)c(F)c(C(Nc2ccc(C(=N)N)cc2)c2nn(-c3ncccn3)c(=O)[nH]2)c1 (racemic) [Example 229, (R) and (S)-4-{[[2-Fluoro-3-(3-hydroxypropoxy)-5-methoxyphenyl]-(5-oxo-1-pyrimidin-2-yl-4,5-dihydro-1H-[1,2,4]triazol-3-yl)methyl]amino}benzamidine acetate]
4.9 | COc1cc(C(Nc2ccc(C(=N)N)cc2)c2nn(-c3ccsc3C(=O)O)c(=O)[nH]2)cc(OCCO)c1OC (racemic) [Example 230, (R) and (S)-3-(3-{(4-Carbamimidoylphenylamino)-[3-(2-hydroxyethoxy)-4,5-dimethoxyphenyl]methyl}-5-oxo-4,5-dihydro-[1,2,4]triazol-1-yl)thiophene-2-carboxylic acid]
6.5 | COc1cc(C(Nc2ccc(C(=N)N)c(F)c2)c2nn(-c3ccsc3C(=O)O)c(=O)[nH]2)c(F)c2c1OCCO2 (racemic) [Example 231, 3-{3-[(4-Carbamimidoyl-3-fluorophenylamino)-(5-fluoro-8-methoxy-2,3-dihydrobenzo[1,4]dioxin-6-yl)methyl]-5-oxo-4,5-dihydro-[1,2,4]triazol-1-yl}thiophene-2-carboxylic acid]
23.7 | COc1cc(OC)cc(C(Nc2ccc(C(=N)N)cc2)c2nn(-c3ncsc3C(=O)O)c(=O)[nH]2)c1 (racemic) [Example 232, (R) and (S)-4-{3-[(4-Carbamimidoylphenylamino)-(3,5-dimethoxyphenyl)methyl]-5-oxo-4,5-dihydro-[1,2,4]triazol-1-yl}thiazole-5-carboxylic acid]

Second part, the compound before the results:

Compound | IC50 [nM]
COc1cc(OCCO)c(F)c(C(Nc2ccc(C(=N)N)cc2)c2nn(-c3ncccc3N)c(=O)[nH]2)c1 (racemic) [Example 201, 4-({(R) and (S)-[1-(3-Aminopyridin-2-yl)-5-oxo-4,5-dihydro-1H-[1,2,4]triazol-3-yl]-[2-fluoro-3-(2-hydroxyethoxy)-5-methoxyphenyl]methyl}amino)benzamidine acetate] | 7.8
COCCOc1cc(OC)cc(C(Nc2ccc(C(=N)N)cc2)c2nn(-c3ncccc3N)c(=O)[nH]2)c1F (racemic) [Example 203, 4-({(R) and (S)-[1-(3-Aminopyridin-2-yl)-5-oxo-4,5-dihydro-1H-[1,2,4]triazol-3-yl]-[2-fluoro-5-methoxy-3-(2-methoxyethoxy)phenyl]methyl}amino)benzamidine acetate] | 8.5
CCc1cc(OCCCO)c(F)c(C(Nc2ccc(C(=N)N)cc2)c2nn(-c3ncccc3N)c(=O)[nH]2)c1 (racemic) [Example 205, (R) and (S)-4-({[1-(3-Aminopyridin-2-yl)-5-oxo-4,5-dihydro-1H-[1,2,4]triazol-3-yl]-[5-ethyl-2-fluoro-3-(3-hydroxypropoxy)phenyl]methyl}amino)benzamidine acetate] | 2.3
COc1cc(C(Nc2ccc(C(=N)N)cc2)c2nn(-c3ccsc3C(=O)O)c(=O)[nH]2)ccc1OCCCO (racemic) [Example 206, 3-(3-{(R) and (S)-(4-Carbamimidoylphenylamino)-[4-(3-hydroxypropoxy)-3-methoxyphenyl]methyl}-5-oxo-4,5-dihydro-[1,2,4]triazol-1-yl)thiophene-2-carboxylic acid] | 5.6
COc1cc(C(Nc2ccc(C(=N)N)cc2)c2nn(-c3ncccn3)c(=O)[nH]2)c(F)cc1OCCO (racemic) [Example 208, 4-{[(R) and (S)-[2-Fluoro-4-(2-hydroxyethoxy)-5-methoxyphenyl]-(5-oxo-1-pyrimidin-2-yl-4,5-dihydro-1H-[1,2,4]triazol-3-yl)methyl]amino}benzamidine acetate] | 85.6
COc1cc(C(Nc2ccc(C(=N)N)cc2)c2nn(-c3ccccc3C(N)=O)c(=O)[nH]2)cc2c1OCOC2 (racemic) [Example 211, 2-{3-[(4-Carbamimidoylphenylamino)-(8-methoxy-4H-benzo[1,3]dioxin-6-yl)methyl]-5-oxo-4,5-dihydro[1,2,4]triazol-1-yl}benzamide] | 4.7
C#Cc1cc(OCCO)cc(C(Nc2ccc(C(=N)N)cc2)c2nn(-c3ncccn3)c(=O)[nH]2)c1 (racemic) [Example 212, 4-{[[3-Ethynyl-5-(2-hydroxyethoxy)phenyl]-(5-oxo-1-pyrimidin-2-yl-4,5-dihydro-1H-[1,2,4]triazol-3-yl)methyl]amino}benzamidine] | 5.7
COc1cc(C(Nc2ccc(C(=N)N)cc2)c2nn(-c3ccccn3)c(=O)[nH]2)cc2c1OCOC2 (racemic) [Example 213, (R) and (S)-4-{[(8-Methoxy-4H-benzo[1,3]dioxin-6-yl)-(5-oxo-1-pyridin-2-yl-4,5-dihydro-1H-[1,2,4]triazol-3-yl)methyl]amino}benzamidine acetate] | 3.3
COc1cc(C(Nc2ccc(C(=N)N)cc2)c2nn(-c3ccccc3C(N)=O)c(=O)[nH]2)cc2c1OCCCO2 (racemic) [Example 214, (R) and (S)-2-{3-[(4-Carbamimidoylphenylamino)-(9-methoxy-3,4-dihydro-2H-benzo[b][1,4]dioxepin-7-yl)methyl]-5-oxo-4,5-dihydro[1,2,4]triazol-1-yl}benzoic acid amide acetate] | 3.5
COc1cc(C(Nc2ccc(C(=N)N)cc2)c2nn(-c3ccsc3C(=O)O)c(=O)[nH]2)c(F)c2c1OCC2 (racemic) [Example 215, (R) and (S)-3-{3-[(4-Carbamimidoylphenylamino)-(4-fluoro-7-methoxy-2,3-dihydrobenzofuran-5-yl)methyl]-5-oxo-4,5-dihydro[1,2,4]triazol-1-yl}thiophene-2-carboxylic acid] | 3.4
COc1cc(O[C@@H](C)CO)c(F)c(C(Nc2ccc(C(=N)N)cc2)c2nn(-c3ncccn3)c(=O)[nH]2)c1 (mixture of isomers) [Example 217, (R) and (S)-4-{[[2-Fluoro-3-((S)-2-hydroxy-1-methylethoxy)-5-methoxyphenyl]-(5-oxo-1-pyrimidin-2-yl-4,5-dihydro-1H-[1,2,4]triazol-3-yl)methyl]amino}benzamidine acetate] | 3.1
COc1cc(OCCO)c(F)c(C(Nc2ccc(C(=N)N)c(F)c2)c2nn(-c3ncccn3)c(=O)[nH]2)c1 (racemic) [Example 218, 2-Fluoro-4-{[[2-fluoro-3-(2-hydroxyethoxy)-5-methoxyphenyl]-(5-oxo-1-pyrimidin-2-yl-4,5-dihydro-1H-[1,2,4]triazol-3-yl)methyl]amino}benzamidine] | 52.4
CCOc1cc(OCCO)c(F)c(C(Nc2ccc(C(=N)N)cc2)c2nn(-c3ncccn3)c(=O)[nH]2)c1 (racemic) [Example 219, (R) and (S)-4-{[[5-Ethoxy-2-fluoro-3-(2-hydroxyethoxy)phenyl]-(5-oxo-1-pyrimidin-2-yl-4,5-dihydro-1H-[1,2,4]triazol-3-yl)methyl]amino}benzamidine acetate] | 9.5
CCOc1cc(OCCO)cc(C(Nc2ccc(C(=N)N)cc2)c2nn(-c3ncccn3)c(=O)[nH]2)c1 (racemic) [Example 220, 4-{[[3-Ethoxy-5-(2-hydroxyethoxy)phenyl]-(5-oxo-1-pyrimidin-2-yl-4,5-dihydro-1H-[1,2,4]triazol-3-yl)methyl]amino}benzamidine] | 7.2
